Experimental findings from US20230026163A1, “ANTICANCER COMPOUND AND MEDICAL USE THEREOF” (ASCENTAWITS PHARMACEUTICALS, LTD., priority 2019, published 2023) are described below.

Data set [1] can be described thus: Maximal tolerance dose (MTD) experiment. It counts as in vivo, ICR mice. The settings on record: for Effect on animal body weight: after intravenous injection in mice; for Gross necropsy of the surviving animals: after the recovery period; for MTD at 5 days: both sexes, ICR, mouse, in vivo, iv; for Average food intake vs normal mice: each administration group. The method, then:
18 ICR mice, 9 females/9 males, were selected for the experiment. According to gender and body weight, the mice were randomly divided into a 10 mg/kg group, a 20 mg/kg group, and a 40 mg/kg group of the S-configuration of compound 01, with 3 females/3 males in each group. By intravenous injection, the 10 mg/kg group of the S-configuration of compound 01 was administered with 1 mg/ml of the administration concentration, 10 ml/kg of the administration volume, and 10 mg/kg of the dose. The 20 mg/kg group containing the S-configuration of compound 01 was administered with 2 mg/ml of the administration concentration, 10 ml/kg of the administration volume, and 20 mg/kg of the dose. The 40 mg/kg group containing the S-configuration of compound 01 was administered with 4 mg/ml of the administration concentration, 10 ml/kg of the administration volume, and 40 mg/kg of the dose. The mice was administered once a day for 5 consecutive days, and recovered for 2 weeks after the last administration. The mice were closely observed for 2 hours after administration of the daily drug. The mice were observed twice a day in the morning and afternoon on the non-administration day. During the experiment, body weight and food intake were measured twice a week. The dead animals and all the survival animals were subjected to gross necropsy on the 14th day after the last administration. The diseased organic were grossly necropsied for histopathological examination.
18 ICR mice, 9 females/9 males, were selected for the experiment. According to gender and body weight, the mice were randomly divided into a 10 mg/kg group, a 20 mg/kg group, and a 40 mg/kg group of the R-configuration of compound 01, with 3 females/3 males in each group. By intravenous injection, the 10 mg/kg group of the R-configuration of compound 01 was administered with 1 mg/ml of the administration concentration, 10 ml/kg of the administration volume, and 10 mg/kg of the dose. The 20 mg/kg group of the R-configuration of compound 01 was administered with 2 mg/ml of the administration concentration, 10 ml/kg of the administration volume, and 20 mg/kg of the dose. The 40 mg/kg group of the R-configuration of compound 01 was administered with 4 mg/ml of the administration concentration, 10 ml/kg of the administration volume, and 40 mg/kg of the dose. The mice was administered once a day for 5 consecutive days, and recovered for 1 week after the last administration. […] To find the maximum tolerated dose, a second cycle of dosing was required. The doses were adjusted and administered for 5 consecutive days.
The mice were closely observed for 2 hours after administration of the daily drug. The mice were observed twice a day in the morning and afternoon on the non-administration day. During the experiment, body weight and food intake were measured twice a week. The dead animals and all the survival animals were subjected to gross necropsy on the 14th day after the last administration. The diseased organic were grossly necropsied for histopathological examination.

In the next data set the test system is H460 cell line. Briefly: Hypoxia-dependent cytotoxicity experiment (2 hours exposure, air or N2, CTG). It counts as cell-based. As to conditions: Homo sapiens, then 3 days. The method, then: To determine the effect of the compounds of the present disclosure on cancer cell proliferation, these compounds were tested for cancer cell anti-proliferative activity in a porous CTG-based assay. Cell growth was compared in the present (treatment groups) and the absence of the test compound. 10,000 cells/well/495 μL of medium was used to test the following cell line, a human tumor cell line of H460 non-small cell lung cancer. The cells were seeded on glass-inserts located in each well of 24-well plates with a density and medium as specified above. 24 hours later, the plates were divided into 2 groups, hypoxia (using N2) group and air group. TH-302 at the concentrations from 100, 10, 0.1 to 0.01 μM, and the test compounds at the concentrations from 10, 1, 0.1, 0.01, 0.001 to 0.0001 were added to each well (500 μL volume) of the treatment groups. The final DMSO concentration in each well was lower than or equal to 1%. The cells in the hypoxia group were incubated for 2 hours in an ELECTROTEK hypoxia workstation. The cells in the air group were incubated for 2 hours in a standard culture incubator. 2 hours later, the test compounds were removed from each well. The cells were washed with 500 μL of medium and incubated in 500 μL of fresh medium for 3 days. 3 days later, 200 μL of medium per well was discarded. 60 μL of CTG was added to the wells, and the plates were placed at room temperature for 15 minutes in the dark. 100 μL of medium from each well of the 24-well plates was transferred to 96-well plates. The chemiluminescence signal values were read with an M5 full-band multi-mode-function microplate reader, and integration=750 ms. The compounds of control 1 and control 2 were used as controls.

Data set [2] deals with H460 non-small cell lung cancer. Nature of the data set: Cytotoxicity test of human tumor cell line in vitro (CTG, 72 hours). It counts as cell-based. The settings on record: Homo sapiens, NCI-H460; H460, 72 hours exposure. The protocol: IC50 values were obtained by the following methods. The cancer cells were exposed to various concentrations of compounds for 72 hours. Following by washing steps, fresh medium was added to allow the growth of the cancer cells. The cancer cells were stained to obtain cell viability. Then, comparisons were made with the medium-only control.
Specifically, the exponentially growing cells were seeded in 96-well plates at a density of 2×10^3 cells/well, and 100 μL/well. The cells were incubated for 24 hours at 37° C., in 5% CO2, in 95% air, and 100% relative humidity. Next, 99 μL of culture medium was added. The compounds were dissolved in 100% DMSO at 200 times the desired final test concentration. Upon addition of compounds, the compounds were further diluted to 4 times the desired final concentration with a complete medium. Aliquots of 1 μL of compounds at specific concentration were added to the micro-wells containing 199 μL of medium to obtain the final compound concentrations as reported. After the compounds were added, the plates were incubated for an addition 72 hours at 37° C., in 5% CO2, in 95% air, and 100% relative humidity.
The plates to be test containing the cells were equilibrated at room temperature for 30 minutes, and 100 μL of medium per well was discarded. 100 μL of CTG reagent (CelltiterGlo Kit) was added to each well. The plates were placed in a fast-shaker to shake for 2 minutes, and placed at room temperature for 30 minutes in the dark. Chemoluminescence signal values were read with Envision instrument.

[3] abbreviates: ICR mice, intravenous injection, once a day for 5 consecutive days, read-out: Maximum tolerated dose / MTD result.
Where [4] appears, read: NCI-H460, H460, air, read-out: Normoxia: IC50.
The mark [5] stands for this setting: NCI-H460, H460, hypoxia (N2), read-out: N2: IC50.

SMILES strings stand for the structures. pIC50: −log10 of the molar value. Read-outs that look alike come from different tables or passages of the source.

As for `O=[N+]([O-])c1ccc([C@@H](OP(=O)(N2CC2)N2CC2)C(F)(F)F)c2ccccc12` [R-configuration of compound 01], the “Animal death after the first 5 consecutive days” value in data set [1] (10, 20 and 40 mg/kg groups, first cycle) is listed as “no animal death”. For the same molecule, the Animals died in data set [1] (10/80 mg/kg group (1st cycle 10 mg/kg, 2nd cycle 80 mg/kg)) is 1 of the 6; in data set [1] (20/60 mg/ml group), 3 of the 6; in data set [1] (40/40 mg/kg group), 1 of the 6. For the same molecule, the “Maximum tolerated dose / MTD result” value in data set [1] (ICR mice, intravenous injection, once a day for 5 consecutive days) lay within 20 to 40 mg/kg. Also, the “Effect on animal body weight” value in data set [1] is on record as “increased slowly”. Further, in data set [1], the “Gross necropsy of the surviving animals” value was “on obvious gross pathological changes”. In addition, the MTD at 5 days was more than 40 mg/kg in data set [1] (ICR mice, intravenous injection, first cycle, read-out: Maximum tolerated dose); 20 to 40 mg/kg in data set [1] (setting [3]); less than 40 mg/kg in data set [1] (ICR mice, intravenous injection, second cycle, read-out: Maximum tolerated dose). In addition, the “Average food intake vs normal mice” value in data set [1] is given as “no significant difference”. In addition, the “Clinical symptoms after administration” value in data set [1] (first cycle, 10/80 mg/kg group) is “in good condition”; in data set [1] (first cycle, 20/60 mg/kg group) it was “unsteady gait”; in data set [1] (first cycle, 40/40 mg/kg), “intermittent gait unsteady, accelerated breathing, and increased spontaneous activity”; in data set [1] (second cycle, 10/80 mg/kg) it was “abnormal gait, decreased muscle tension, decreased spontaneous activity, irregular breathing, unsteady gait, accelerated breathing, erect hair, spasm, deepened breathing, prone, and arched back”; in data set [1] (second cycle, 20/60 mg/kg) it was “intermittent deepened breathing, decreased spontaneous activity, unsteady gait, irregular breathing, increased spontaneous activity, accelerated breathing, unsteady gait, and prone”; in data set [1] (second cycle, 40/40 mg/kg) it was “intermittent unsteady gait, deepened breathing, accelerated breathing, increased spontaneous activity, and abnormal gait”.

Take `O=[N+]([O-])c1ccc([C@H](OP(=O)(N2CC2)N2CC2)C(F)(F)F)c2ccccc12` [S-configuration of compound 01]: in data set [1] (10 mg/kg group and 20 mg/kg group), the “Clinical symptoms after administration” value is listed as “in good condition”. In data set [1] (40 mg/kg group), the “Clinical symptoms after administration” value is “unsteady gait, deepened breathing, accelerated breathing, and decreased spontaneous activity”. In addition, the Animals died in data set [1] (40 mg/kg group, i.v., 5 consecutive days) is 3 of the 6. In data set [1], the “Effect on animal body weight” value was “increased slowly”, the “Gross necropsy of the surviving animals” value was “on obvious gross pathological changes” and the “Average food intake vs normal mice” value is reported as “no significant difference”. Besides, the MTD at 5 days in data set [1] (setting [3]) turned out to be 20 mg/kg.

With `O=[N+]([O-])c1ccc(C(OP(=O)(N2CC2)N2CC2)C(F)(F)F)cc1` (stereo not drawn) [Control 2, reference compound], the pIC50 in the data set on H460 cell line (setting [4]) was 4.81; in the data set with H460 cell line (setting [5]), 5.15; in data set [2], 6.18.

`CC(OP(=O)(N1CC1)N1CC1)c1ccc([N+](=O)[O-])c2ccccc12` (stereo not drawn) [Compound 26]: the pIC50 in the data set on H460 cell line (setting [4]) was 7.42; in the data set on H460 cell line (setting [5]), more than 8.01; in data set [2] it was 7.04.

For the molecule `O=[N+]([O-])c1c(COP(=O)(N2CC2)N2CC2)ccc2ccccc12` [Compound 03], the pIC50 with H460 cell line (setting [4]) is 5.00; in the data set with H460 cell line (setting [5]), 6.20; in data set [2], 6.09.
